Tests used:
MDA-MB-231 cells [1] = experiment: Proliferation assay; assay type: cell-based, human; details: 48 h treatment
Description: Proliferation Assay. MDA-MB-231 cells were seeded in 96-well plates (Corning) at ˜40% confluency and treated with compound or transfected with ASO as described in Cell Culture. Compound was replenished every 16 h by replacing all the growth medium with freshly prepared medium containing same concentration of compounds. After 48 h total treatment period, proliferation was measured by using CellTiter 96 AQueous One Solution Cell Proliferation Assay (Cat #G3582, Promega) per manufacturer's protocol.

MDA-MB-231 cells [2] = experiment: Invasion assay; assay type: cell-based, human; details: 10 μM, 48 h
Description: Invasion Assay. MDA-MB-231 cells were seeded in […] and treated with compound or transfected by ASO for 48 h as described in Cell Culture. After treatment for 48 h, the medium was replaced with fresh medium that contains same concentration of compound but lacking FBS for 8 h (serum starvation). ThinCert (GBO) 24-well inserts with 8 μm pores were coated with 100 μL of 0.5 mg/mL Matrigel (Fisher Scientific: CB40234) per well, and then cells were added into the insert (50,000 cells per well). Fresh growth medium with FBS was added to a 24-well plate (600 μL each well), and the inserts containing cells were placed on the top, allowing medium to cover the bottom of the insert. After 16 h, all medium was removed, and cells were washed by 1×DPBS twice. Cells were then fixed with 3% (w/v) paraformaldehyde (PFA) in 1×DPBS at room temperature for 30 min, followed by staining with Crystal Violet (10 mg/mL; 4:1H2O:MeOH) at room temperature for 20 min. A cotton swab was used to gently remove non-invasive cells on sitting on top of the Matrigel. The inserts were then imaged under a regular optical microscope (3 views per well), and the number of invasive cells were counted manually.

[3] = target: QSOX1 5′UTR hairpin (model of the QSOX1-a binding site); experiment: In vitro binding by fluorescence polarization, Cy5-labeled WT RNA; set-up: species or system human
Description: (§1) In Vitro Binding by Measuring Changes in Fluorescence Polarization. Cy5-labeled RNA was folded by heating at 95° C. for 2 min in 1× Folding Buffer and cooled on ice. Serial dilutions of F1 (200 to 0.4 μM, 1:1 dilutions) were prepared in 1× Folding Buffer with 4% (w/v) bovine serum albumin (BSA) with constant DMSO concentration (2% v/v). The compound solutions (10 μL) were added to a well of non-binding 384-well plate (Corning). An equal volume of folded RNA was adding to each well with a final concentration of 50 nM. The samples were incubated at room temperature for 30 min, and then fluorescence polarization was measured with a Molecular Devices SpectraMax M5 plate reader with an excitation wavelength of 640 nm and an emission wavelength of 680 nm.

QSOX1-a mRNA = QSOX1-a mRNA abundance by RT-qPCR in MDA-MB-231 cells; assay type: cell-based, human; set-up: dose or concentration left out as unconfirmed; details: at the, the highest dose
Description: Analysis of mRNA Abundance by RT-qPCR. Unless stated otherwise, all RT-qPCR experiments were performed to measure nascent RNA levels by using Click-it Nascent RNA Capture Kit (Cat #C10365, Thermo Fisher) per the manufacturer's protocols. Briefly, cells were treated with 0.2 mM of ethynyl uridine (EU) in growth medium for 16 h, after which the medium was replaced with fresh growth medium lacking EU. Compound or ASO treatment was performed at the same time of initial EU treatment, and compounds were replenished after replacing the medium to remove EU. Total RNA was extracted by using a Zymo Quick-RNA Miniprep Kit as per manufacturer's protocol with DNase treatment. The click reaction and pull-down of nascent RNA were performed as described in “In Vitro Chemical-Crosslinking and Isolation by Pull-down (Chem-CLIP) with Fluorescently Labeled RNA”. Reverse transcription (RT) was performed by using 300 ng total RNA and a QScript cDNA synthesis kit (QuantaBio) per manufacturer's protocols qPCR was performed in 384-well plates by using Power SYBR Green Master Mix (Life Technologies) on a QuantStudioS™ Cycler (Applied Biosystems) using the “Comparative Ct with Melt” method.

MDA-MB-231 TBNC cells = experiment: Viability of MDA-MB-231 cells; assay type: cell-based, human; set-up: dose or concentration left out as unconfirmed; details: the highest dose
[4] = test system: mutant RNA lacking U-bulge (fully paired RNA); experiment: In vitro binding by fluorescence polarization, Cy5-labeled mutant RNA
Description: as §1

Row | Kd [3] [µM] | SMILES | antiproliferative activity compared to F1-Amide delivered at twice the dose (MDA-MB-231 cells [1]) | effect on proliferation of MDA-MB-231 cells (MDA-MB-231 cells [1]) | reduction of the number of invasive MDA-MB-231 cells (MDA-MB-231 cells [2]) [%] | decrease of QSOX1-a mRNA levels (QSOX1-a mRNA) [%] | effect on viability (MDA-MB-231 TBNC cells) | binding to fully paired RNA (U bulge converted to AU base pair) [4]
1 | 11 ± 5 | CCOC(=O)C1=C(Nc2ccccc2)S/C(=C\c2ccc(OCCOCCOCCOCCNC(=O)CCC(=O)N(C)[C@H]3CC[C@@H](c4ccc(Cl)c(Cl)c4)c4ccccc43)c(O)c2)C1=O [Compound F1-RIBOTAC] | enhanced activity | dose-dependently reduced proliferation | ~40 | ~35 | no effect on viability | 
2 |  | C#CCCC1(CCC(=O)N(C)[C@H]2CC[C@@H](c3ccc(Cl)c(Cl)c3)c3ccccc32)N=N1 [Compound F1] |  |  |  |  |  | no detectable binding

— US20250346943A1, “DEGRADER COMPOUNDS OF QSOX1 mRNA” (UNIVERSITY OF FLORIDA RESEARCH FOUNDATION, INCORPORATED, priority 2022, published 2025)
